Data from patent US20230278997A1, “BICYCLO[1.1.1]PENTANE COMPOUNDS FOR THE TREATMENT AND PROPHYLAXIS OF HEPATITIS B VIRUS INFECTION” (Hoffmann-La Roche Inc., priority 2020, published 2023).

Assay: Human microsome stability assay
Assay type: in vitro ADME
Settings: 1 μM compound, 0.5 mg/mL microsomal protein, 37° C.; detection limit 6.15 mL/min/kg
Procedure: Human Microsome Stability Assay The human microsomal stability assay is used for early assessment of metabolic stability of a test compound in human liver microsomes. Human liver microsomes (Cat. […] The reactions were initiated by adding NADPH regenerating system. […] Following precipitation and centrifugation, the amount of compound remaining in the samples were determined by LC-MS/MS. Controls of no NADPH regenerating system at zero and 30 minutes were also prepared and analyzed.

SMILES | Clearance of human microsome
CS(=O)(=O)C1(c2ccc(C(=O)NC34CC(c5ncc(-c6ccc(Cl)nc6)s5)(C3)C4)o2)CC1 [Example 56, N-[3-[5-(6-chloro-3-pyridyl)thiazol-2-yl]-1-bicyclo[1.1.1]pentanyl]-5-(1-methylsulfonylcyclopropyl)furan-2-carboxamide] | ≤6.15 mL/min/kg
CS(=O)(=O)C1(c2ccc(C(=O)NC34CC(c5nc(C(F)(F)F)cs5)(C3)C4)o2)CC1 [Example 16, 5-(1-methylsulfonylcyclopropyl)-N-[3-[4-(trifluoromethyl)thiazol-2-yl]-1-bicyclo[1.1.1]pentanyl]furan-2-carboxamide] | ≤6.15 mL/min/kg
CS(=O)(=O)C1(c2ccc(C(=O)NC34CC(c5nsc(-c6ccccc6)n5)(C3)C4)o2)CC1 [Example 25, 5-(1-methylsulfonylcyclopropyl)-N-[3-(5-phenyl-1,2,4-thiadiazol-3-yl)-1-bicyclo[1.1.1]pentanyl]furan-2-carboxamide] | ≤6.15 mL/min/kg
CS(=O)(=O)C1(c2ccc(C(=O)NC34CC(c5nc(-c6ccc(Cl)nc6)cs5)(C3)C4)o2)CC1 [Example 9, N-[3-[4-(6-chloro-3-pyridyl)thiazol-2-yl]-1-bicyclo[1.1.1]pentanyl]-5-(1-methylsulfonylcyclopropyl)furan-2-carboxamide] | ≤6.15 mL/min/kg
CS(=O)(=O)C1(c2ccc(C(=O)NC34CC(c5ncc(-c6ccccc6)s5)(C3)C4)o2)CC1 [Example 22, 5-(1-methylsulfonylcyclopropyl)-N-[3-(5-phenylthiazol-2-yl)-1-bicyclo[1.1.1]pentanyl]furan-2-carboxamide] | ≤6.15 mL/min/kg
CS(=O)(=O)C1(c2ccc(C(=O)NC34CC(c5ncc(C6CC6)s5)(C3)C4)o2)CC1 [Example 23, N-[3-(5-cyclopropylthiazol-2-yl)-1-bicyclo[1.1.1]pentanyl]-5-(1-methylsulfonylcyclopropyl)furan-2-carboxamide] | ≤6.15 mL/min/kg
CS(=O)(=O)C1(c2ccc(C(=O)NC34CC(c5nc(C6CC6)cs5)(C3)C4)o2)CC1 [Example 14, N-[3-(4-cyclopropylthiazol-2-yl)-1-bicyclo[1.1.1]pentanyl]-5-(1-methylsulfonylcyclopropyl)furan-2-carboxamide] | ≤6.15 mL/min/kg
CS(=O)(=O)C1(c2nnc(C(=O)NC34CC(c5ncc(-c6ccc(Cl)cc6)s5)(C3)C4)o2)CC1 [Example 20, N-[3-[5-(4-chlorophenyl)thiazol-2-yl]-1-bicyclo[1.1.1]pentanyl]-5-(1-methylsulfonylcyclopropyl)-1,3,4-oxadiazole-2-carboxamide] | ≤6.15 mL/min/kg
CS(=O)(=O)Cc1ncc(C(=O)NC23CC(c4nc(-c5ccc(Cl)cc5)cs4)(C2)C3)o1 [Example 5, N-[3-[4-(4-chlorophenyl)thiazol-2-yl]-1-bicyclo[1.1.1]pentanyl]-2-(methylsulfonylmethyl)oxazole-5-carboxamide] | ≤6.15 mL/min/kg
NC(=O)c1cc(C(=O)NC23CC(c4nc(-c5ccc(Cl)cc5)no4)(C2)C3)ccn1 [Example 36, N4-[3-[3-(4-chlorophenyl)-1,2,4-oxadiazol-5-yl]-1-bicyclo[1.1.1]pentanyl]pyridine-2,4-dicarboxamide] | 11.99 mL/min/kg
CS(=O)(=O)C1(c2ccc(C(=O)NC34CC(c5nnc(-c6ccc(Cl)cc6)o5)(C3)C4)o2)CC1 [Example 28, N-[3-[5-(4-chlorophenyl)-1,3,4-oxadiazol-2-yl]-1-bicyclo[1.1.1]pentanyl]-5-(1-methylsulfonylcyclopropyl)furan-2-carboxamide] | ≤6.15 mL/min/kg
CS(=O)(=O)C1(c2ccc(C(=O)NC34CC(c5ncc(-c6ccc(Cl)cn6)s5)(C3)C4)o2)CC1 [Example 57, N-[3-[5-(5-chloro-2-pyridyl)thiazol-2-yl]-1-bicyclo[11.11]pentanyl]-5-(1-methylsulfonylcyclopropyl)furan-2-carboxamide] | 15.39 mL/min/kg
CS(=O)(=O)C1(c2ccc(C(=O)NC34CC(c5cn(-c6ccc(Cl)cc6)nn5)(C3)C4)o2)CC1 [Example 29, N-[3-[1-(4-chlorophenyl)triazol-4-yl]-1-bicyclo[1.1.1]pentanyl]-5-(1-methylsulfonylcyclopropyl)furan-2-carboxamide] | ≤6.15 mL/min/kg
CS(=O)(=O)C1(c2ccc(C(=O)NC34CC(c5ncc(-c6cnc(Cl)cn6)s5)(C3)C4)o2)CC1 [Example 59, N-[3-[5-(5-chloropyrazin-2-yl)thiazol-2-yl]-1-bicyclo[1.1.1]pentanyl]-5-(1-methylsulfonylcyclopropyl)furan-2-carboxamide] | 6.89 mL/min/kg
CS(=O)(=O)C1(c2ccc(C(=O)NC34CC(c5ncc(Br)s5)(C3)C4)o2)CC1 [Example 24, N-[3-(5-bromothiazol-2-yl)-1-bicyclo[1.1.1]pentanyl]-5-(1-methylsulfonylcyclopropyl)furan-2-carboxamide] | ≤6.15 mL/min/kg
CS(=O)(=O)C1(c2ccc(C(=O)NC34CC(c5nc(-c6ccccc6)ns5)(C3)C4)o2)CC1 [Example 17, 5-(1-methylsulfonylcyclopropyl)-N-[3-(3-phenyl-1,2,4-thiadiazol-5-yl)-1-bicyclo[1.1.1]pentanyl]furan-2-carboxamide] | ≤6.15 mL/min/kg
